This note sets out measurements from EP0139358B1, “N6-substituted diarylalkyl adenosines, processes for their production and pharmaceutical compositions comprising the same” (priority 1983, dated 1985).

The subject of series [1] is Swiss-Webster male mice. The series is described as follows: Mouse Activity and Screen Test (MAST): screen test (ST). The format is in vivo. The conditions noted are these: for Inhibition of screen test failure: percent of mice falling off the screen; for MAST ST LAD: lowest dose at which an A rating (60-100%) is achieved, screen test, intraperitoneally. As to the method: (§1) Treatments are administered intraperitoneally one hour prior to testing. […] Compounds are dissolved or suspended in 0.2% Methocel. Control animals are injected with Methocel.
The compounds are identified in the Examples.

The subject of the next series is conscious rat. Description: Antihypertensive evaluation (AHP3): aortic blood pressure and heart rate. The format is in vivo. The conditions noted are these: lowest dose tested at which a >10% reduction in blood pressure for four consecutive hours is achieved; conscious rat; read-out: AHP3 BP LAD. An excerpt:
[…] EVALUATION (AHP3)
This test procedure is described in the following paragraphs.
A Method for the Direct Monitoring of Aortic Blood Pressure and Heart Rate from Conscious Rats
The continuous monitoring of pulsatile blood pressure (BP) from unrestrained conscious rats surgically equipped with polyethylene cannulas was accomplished by means of a computer assisted data capture scheme (CADCS). The absic elements of the methodology are the cannulation procedure and the CADCS.
Cannulation Procedure: Rats were anesthetized with Telazol (1:1 tiletamine HCI and zolazepam HCI); 20-40 mg/kg IM and the descending aorta exposed via a midline incision. Cannulas fabricated from polyethylene tubing were inserted into the aorta via an undersized puncture hole below the renal arteries. The puncture hole was made by a 23 G disposable needle with a section of the aorta clamped off above and below the puncture site. The cannulas, consisting of a PE100 (0.86 mm ID) body and a PE50 (0.58 mm ID) tip, were attached to a trocar, inserted through the psoas muscle, and passed subcutaneously along the midline of the back and externalized between the ears. The cannulas were anchored to the psoas muscle and between the scalulae (3-0 green braided suture). The midline incision was closed in two steps (muscle first, skin second) using continuous over-and over sutures (4-0 chronic). Each rat was then given penicillin 30,000 units subcutaneously (Penicillin G Procaine Sterile Suspension).
The rats were fitted with a harness-spring-swivel assembly designed to protect the cannula and to provide the rat relative freedom of movement. The harnesses were fabricated from nylon hook and loop tape cemented to a metal plate to which spring wires (18-8 stainless steel), were attached to brass swivels. Each polyethylene cannula was channeled through a spring and connected through a swivel to a pressure transducer (Model P23Gb; Statham Instruments; Hato Rey, Puerto Rico) and an infusion pump (Sage model 234-7; Orion Research, Cambridge, Ma) by means of PE100 tubing. While on test, each rat received a continuous slow infusion of heparinized saline solution (approximately 400 I or 40 units of heparin per 24 hour period) to prevent clot formation. Additional "flushes" of the cannula with heparinized saline were carried out when the aortic pulse pressure (systolic minus diastolic) was less than 25 mm Hg.
CADCS: The pulsatile blood pressure and heart rate of each of 32 rats was monitored every minute by means of two in-laboratory microcomputers communicating directly with a data concentrator computer. The data were first stored on the data concentrator disk and then transferred to a magnetic tape for analysis and report generation by the main research computer. The overall scheme involved modulating the primary signal from the pressure transducer, generating the primary data set of the one-minute values for systolic, diastolic, and mean blood pressures and heart rate by the in-lab microcomputer and the storage, analysis, and report generation by the main research computer.
The transducers were connected to analog signal conditioning modules. The modules providing a regulated excitation voltage for the transducers, amplification as required to interface the microprocessors and an active low pass filter to compensate for the pressure wave form distortion produced by the flexible, fluid filled, narrow cannula.
The microcomputers (one for each of two groups of 16 rats) were connected to the input components through the module interface units, an analog-to-digital converter for the pressure wave form signal and the digital inputs for the dose and event marker switches. The microcomputer controlled the sequential acquisition of data from the modular interface units through an internal synchronous time-of-day clock/ time base generator. […]

The test system of another series is rat heart. Description: Coronary blood flow (PCS2A): isolated perfused heart. The conditions noted are these: for EC50: isolated perfused rat heart. As to the method: CORONARY BLOOD FLOW (PCS2A)
Male rats (400-600 gms) are pretreated with Na haparin 2000 units and anesthetized with Na pentobarbital (50 mg/kg) administered intraperitoneally. Once anesthetized, the rat heart is rapidly excised, the ascending aorta fitted to the aortic perfusion cannula, and […] with a ligature. The coronary arteries are perfused initially at a rate of about 15 ml/min for two to three minutes, afterwhich they are perfused at constant pressure of 70 mm Hg and temperature of 37°C. The electrocardiogram (ECG) is recorded using two platinum electrodes positioned at the base and apex of the left ventricle. A second heart is excised, cannulated, and perfused by the same method outlined above. Both hearts are tested in parallel. The standard physiological salt solution (PSS) is a modified Krebs-Hanseleit bicarbonate buffer of the following composition in mM concentration: NaCI, 127; NaHC03, 25; dextrose, 5.5; Na Pyruvate, 2.0: KCI, 4.7; MgS04, 1.1; KH 2P04, 1.2; CaCl2·2H2O, 2.5; CaNa2 EDTA, 0.05.
A 30-minute stabilization period is observed before starting the test protocol.
The microprocessor control system is a servo mechanism which permits coronary perfusion pressure (CPP) and drug concentration to be maintained constant independent of changes in coronary flow. The level at which CPP and drug concentration are maintained can be changed by commands communicated through the microprocessor keyboard. Dose-response curves are carried out by perfusing concentrated drug solution (DC) at rates proportional to total coronary flow (CFT). Drug concentrations are increased by proportionate increases in the rate of DC infusion over CFT via the microprocessor keyboard. The proportional flow rates for DC:CFT is about .0002:1 at the low end and .02: at the high end of the dose-response curve. Dose-response curves encompassing at least two log doses are carried out by preparing two DCs with a concentration difference of 1:100. Following the first dose range of two log doses, the DC are switched, proportional pumping rate adjusted, and the dose-response curve continued for another two log doses. The standard dose-response curve is carried out in one-half log dose increments starting at a subthreshold dose and ending at a dose which produces near maximal response in activity. Standard reference compounds are tested over the range of 10-^9 to 10-^6M.
Measurements are for heart rate (HR) and coronary flow (CF). Units are: HR, beats/minute (bpm) and CF, milliliters/minute (ml/min). HR is calculated from the ECG strip chart recording and CF is calculated by recording analog outputs from pumps 1 and 2. Outputs from pump #1 = CFT and the output from pump #2 = CF for heart B (CFg). CF for heart A (CFA) is calculated (CFT - CFB = CFA).
Using the above technique, the effects of the compound of Examples 1 and 2 are as follows: […]

For series [2], the system named is Swiss-Webster male mice. The series is described as follows: Mouse Activity and Screen Test (MAST): inhibition of spontaneous locomotion (LI). In kind it is in vivo. The conditions noted are these: for Inhibition of mouse locomotor activity: one hour prior to testing, vs vehicle; for minimal effective dose: Mus musculus, ip, read-out: MAST LI LAD. As to the method: as §1
Immediately following the screen test, the final phase of testing is initiated by placing each group of three mice in one actophotometer (Life Sciences, 22, 1067-1076, 1978). The actophotometer consists of a cylindrical chamber whose center is occupied by another cylinder which contains the illumination for six photocells located on the perimeter of the chamber. Six light-beam interruptions equal one count. Locomotor activity is recorded by computer at ten minute intervals for 60 minutes. […]

Where [3] appears, read: coronary flow, read-out: PCS2A CF ED50.
[4] abbreviates: heart rate, read-out: PCS2A HR ED50.

SMILES strings stand for the structures. Like-named read-outs stand apart in the source and are kept apart here.

As to `OC[C@H]1O[C@@H](n2cnc3c(NCCC(c4ccccc4)c4ccccc4)ncnc32)[C@H](O)[C@@H]1O` [Example 2, N^6-(3,3-Diphenylpropyl)adenosine], the “Inhibition of screen test failure” value in the series with Swiss-Webster male mice [1] (10 mg/kg intraperitoneally), in the series on Swiss-Webster male mice [1] (30 mg/kg intraperitoneally) and in the series with Swiss-Webster male mice [1] (100 mg/kg intraperitoneally) was 0% each time. Besides, the “MAST ST LAD” value in the series with Swiss-Webster male mice [1] is given as over 100 mg/kg. The values for the minimal effective dose in the series with conscious rat and with Swiss-Webster male mice [2] were over 30 mg/kg and 100 mg/kg, respectively. In addition, the activation at 1 µM with rat heart (Dose 1 × 10^-6 Molar, coronary flow change, isolated rat heart, read-out: CF) is 47%. The activation at 0.1 µM in the series on rat heart (Dose 1 × 10^-7 Molar, coronary flow change, isolated rat heart, read-out: CF) turned out to be 42%. Moreover, the activation at 0.01 µM in the series with rat heart (Dose 1 × 10^-8 Molar, coronary flow change, isolated rat heart, read-out: CF) is 26%. The activation at 3 µM in the series with rat heart (Dose 3 × 10^-6 Molar, coronary flow change, isolated rat heart, read-out: CF) is 48%. The EC50 is 3000 nM with rat heart (setting [3]) and 6000 nM in the series on rat heart (setting [4]). For the same compound, the results for the “Inhibition of mouse locomotor activity” value with Swiss-Webster male mice [2] (10 mg/kg intraperitoneally), in the series on Swiss-Webster male mice [2] (30 mg/kg intraperitoneally) and with Swiss-Webster male mice [2] (100 mg/kg intraperitoneally) were −9%, 13% and 60%, respectively.
For `OC[C@H]1O[C@@H](n2cnc3c(NCCCC(c4ccccc4)c4ccccc4)ncnc32)[C@H](O)[C@@H]1O` [Example 6, N^6-(4,4-Diphenylbutyl)adenosine], the “MAST ST LAD” value with Swiss-Webster male mice [1] is reported as over 100 mg/kg. Also, the figures for the minimal effective dose in the series on conscious rat and in the series on Swiss-Webster male mice [2] were over 30 mg/kg and 100 mg/kg, respectively. Further, the EC50 with rat heart (setting [3]) was 14 nM; in the series with rat heart (setting [4]) it was over 1000 nM.
`Cc1cccc(C(CNc2ncnc3c2ncn3[C@@H]2O[C@H](CO)[C@@H](O)[C@H]2O)c2ccccc2)c1` (stereo partly drawn) [Example 9, N^6-(2-(3-Methylphenyl)-2-phenylethyl)adenosine]: the “MAST ST LAD” value in the series with Swiss-Webster male mice [1] came to 100 mg/kg. In addition, the minimal effective dose in the series on Swiss-Webster male mice [2] was at most 10 mg/kg.
For `OC[C@H]1O[C@@H](n2cnc3c(NCC(c4ccc(F)cc4)c4ccc(F)cc4)ncnc32)[C@H](O)[C@@H]1O` [Example 13, ^N'-(^2,2-Di-(4-fluorophenyl)ethyl)adenosine], the “MAST ST LAD” value in the series with Swiss-Webster male mice [1] is over 100 mg/kg. Moreover, the minimal effective dose came to 10 mg/kg with conscious rat and 3 mg/kg in the series on Swiss-Webster male mice [2].
`OC[C@H]1O[C@@H](n2cnc3c(NCC(c4ccccc4)c4cccc(Cl)c4)ncnc32)[C@H](O)[C@@H]1O` (stereo partly drawn) [Example 14, N^6-(2-(3-Chlorophenyl)-2-phenylethyl)adenosine]: the “MAST ST LAD” value in the series with Swiss-Webster male mice [1] was over 100 mg/kg. For the same compound, in the series with Swiss-Webster male mice [2], the minimal effective dose was determined as 1 mg/kg.
Turning to `Nc1nc(NCC(c2ccccc2)c2ccc(Cl)cc2)c2ncn([C@@H]3O[C@H](CO)[C@@H](O)[C@H]3O)c2n1` (stereo partly drawn) [Example 16, N^6-(2-(4-Chlorophenyl)-2-phenylethyl)-2-aminoadenosine], in the series on Swiss-Webster male mice [1], the “MAST ST LAD” value is listed as over 100 mg/kg. The minimal effective dose in the series on conscious rat is over 10 mg/kg; in the series on Swiss-Webster male mice [2], 100 mg/kg.
With `OC[C@H]1O[C@@H](n2cnc3c(NCC(c4ccc(Cl)cc4)c4ccc(Cl)cc4)ncnc32)[C@H](O)[C@@H]1O` [Example 17, N^6-(2,2-Di(4-chlorophenyl)ethyl)adenosine], the “MAST ST LAD” value in the series with Swiss-Webster male mice [1] was over 100 mg/kg. The EC50 in the series on rat heart (setting [3]) and in the series with rat heart (setting [4]) was over 3000 nM throughout. For the same compound, in the series with Swiss-Webster male mice [2], the minimal effective dose worked out at 100 mg/kg.
Turning to `Nc1nc(NCC(c2ccc(Cl)cc2)c2ccc(Cl)cc2)c2ncn([C@@H]3O[C@H](CO)[C@@H](O)[C@H]3O)c2n1` [Example 18, N^6-(2,2-Di-(4-chlorophenyl)ethyl)-2-aminoadenosine], the “MAST ST LAD” value in the series with Swiss-Webster male mice [1] is over 30 mg/kg. Moreover, the minimal effective dose is over 10 mg/kg in the series on conscious rat and over 30 mg/kg with Swiss-Webster male mice [2].
Regarding `COC(=O)C(CNc1ncnc2c1ncn2[C@@H]1O[C@H](CO)[C@@H](O)[C@H]1O)(c1ccccc1)c1ccccc1` [Example 24, N^s-(2-Carbomethoxy-2,2-diphenylethyl)adenosine], the “MAST ST LAD” value in the series on Swiss-Webster male mice [1] is listed as over 30 mg/kg. For the same compound, the results for the EC50 in the series on rat heart (setting [3]) and in the series on rat heart (setting [4]) were over 3000 nM and 3000 nM, respectively. Moreover, the minimal effective dose in the series on Swiss-Webster male mice [2] came out at 30 mg/kg.
On to `O=C(OC[C@H]1O[C@@H](n2cnc3c(NCC(c4ccccc4)c4ccccc4)ncnc32)[C@H](OC(=O)c2ccccc2)[C@@H]1OC(=O)c1ccccc1)c1ccccc1` [Example 26, 2',3',5'-Tri-0-benzoyl-N^6-(2,2-diphenylethyl)adenosine], for which, in the series on Swiss-Webster male mice [1], the “MAST ST LAD” value is given as over 100 mg/kg. The minimal effective dose with conscious rat and with Swiss-Webster male mice [2] was 10 mg/kg throughout.
With `CC(=O)OC[C@H]1O[C@@H](n2cnc3c(NCC(c4ccccc4)c4ccccc4)nc(Cl)nc32)[C@H](OC(C)=O)[C@@H]1OC(C)=O` [Example 27, 2',3',5'-Tri-O-acetyl-N^6-(2,2-diphenylethyl)-2-chloroadenosine], the “MAST ST LAD” value in the series with Swiss-Webster male mice [1] is over 100 mg/kg. Also, the minimal effective dose with Swiss-Webster male mice [2] was found to be 30 mg/kg.
As for `O=P(O)(O)OC[C@H]1O[C@@H](n2cnc3c(NCC(c4ccccc4)c4ccccc4)ncnc32)[C@H](O)[C@@H]1O` [Example 28, N^6-(2,2-Diphenylethyl)adenosine-5'-phosphate], in the series with Swiss-Webster male mice [1], the “MAST ST LAD” value is listed as over 30 mg/kg. In addition, in the series on Swiss-Webster male mice [2], the minimal effective dose was at most 3 mg/kg.
For the compound `CC1(C)O[C@@H]2[C@H](O1)[C@@H](CO)O[C@H]2n1cnc2c(NCC(c3ccccc3)c3ccccc3)ncnc21` [Example 29, 2',3'-0-Isopropylidene-N6-(2,2-diphenylethyl)adenosine], the “MAST ST LAD” value in the series on Swiss-Webster male mice [1] was over 100 mg/kg. Moreover, the minimal effective dose with conscious rat stood at 10 mg/kg; in the series with Swiss-Webster male mice [2], 30 mg/kg.
